Consider 24 compounds from patent EP4741383A1, “COMPOUND AND USE THEREOF AS ANTI-CANCER DRUG” (Tyligand Bioscience (Shanghai) Limited, priority 2023, dated 2025).

In one experiment the test system is MeWo. The experiment can be described thus: CellTiter-Glo cell proliferation inhibition, MeWo. The following applies: for IC50: MeWo cells, CellTiter-Glo. In kind it is cell-based, human. As for the experimental part:
(§1) In this study, the CellTiter-Glo® Luminescent Cell Viability Assay kit from Promega was used to evaluate the inhibitory effects of the disclosed compounds on the proliferation of cell lines KYSE520 (a human esophageal squamous cell carcinoma cell line dependent on SHP2 for growth), MeWo (a human malignant melanoma cell line), and MV4-11 (an RTK-mutant human acute monocytic leukemia cell line).
Using essentially the same experimental materials, MeWo cells (ATCC, catalog #HTB-65) were treated similarly: when thawing the cells, the cryovial was rapidly shaken in a 37 °C water bath to thaw the cells within 1 minute. The thawed cell suspension was mixed with MEM/EBSS culture medium containing 10% FBS (HyClone, catalog #SH30024.01), centrifuged at 1000 rpm for 5 minutes, and the supernatant was discarded. The cell pellet was resuspended in 5 mL of complete culture medium (MEM/EBSS medium containing 10% FBS), placed in a cell culture flask with 25 cm^2 of bottom area, and cultured in a cell culture incubator at 37 °C, 95% humidity, and 5% CO2. Cell passaging was performed when the cell confluence reached approximately 80%. During cell passaging, the old culture medium was discarded, the cells were washed once with DPBS, and 1 mL of trypsin was added to digest the cells. When the cells dispersed into single cells and detached from the bottom of the cell culture flask, 3 mL of new complete culture medium was added to stop the digestion. After thoroughly mixing the cell suspension, 1/5 of the cell suspension was retained, 5 mL of new complete culture medium was added, and after thorough mixing, the cells were placed in a cell culture flask for further culture. Cell plating was performed when the cell confluence again reached approximately 80%. During cell plating, following the cell passaging method, 1/5 of the cell suspension was retained for further culture, and the remaining 4/5 of the cell suspension was placed in a 15 mL centrifuge tube. Cell viability was determined using the trypan blue exclusion method to ensure that cell viability was above 90%. A cell suspension with a density of 2.22 × 10^4 cells/mL was prepared using MEM/EBSS culture medium containing 5% FBS. 90 µL of the cell suspension was added to a 96-well cell culture plate, resulting in a cell density of 2000 viable cells/well in the cell culture plate. A control group without cells and without compounds, containing only complete culture medium (i.e., culture medium control), and a control group without compounds but containing cells (i.e., cell control) were set up. The cell plate was cultured overnight in the cell culture incubator. First, a 10 mM stock solution of the compound (Example compound and positive control compound 11a-1) in DMSO was serially diluted with DMSO at a 3-fold dilution, down to the 9th concentration. A 10th concentration containing only DMSO (without the compound) was also prepared as a control. Then, the DMSO solutions containing different concentrations of the compound were diluted 100-fold with complete culture medium, resulting in a 1% DMSO concentration in each solution. Finally, 10 µL of each solution was added to the corresponding wells of the cell culture plate, resulting in a starting compound concentration of 10 µM, with a 3-fold dilution between adjacent concentrations, and a 0.1% DMSO concentration in the cell culture plate. The cell plates were then incubated in a cell culture incubator for 72 hours.
(§2) For endpoint detection, CellTiter-Glo reagent (Promega, catalog number #G7573, CellTiter-Glo® Luminescent Cell Viability Assay Kit) was melt and each cell plate was moved to room temperature for equilibration for 30 minutes. 75 µL (KYSE520 cells) or 50 µL (MeWo cells and MV 4-11 cells) of CellTiter-Glo was added to each well of the corresponding cell plate. The plates were shaken on a track-mounted shaker for 2 minutes to fully lyse the cells. The cell plates were kept at room temperature for 8 minutes to stabilize the luminescence signal. […]

The subject of the next experiment is MV4-11. The experiment can be described thus: CellTiter-Glo cell proliferation inhibition, MV4-11. Conditions: for IC50: Homo sapiens, MV4-11 cells, 72 hours, CellTiter-Glo, read-out: IC50 (µM) M V4-11. In kind it is cell-based, human.
Excerpt: as §1
Using essentially the same experimental materials, MV4-11 cells (Nanjing Cobio Biotechnology Co., Ltd., Catalog #CBP60522) were treated similarly: when thawing the cells, the cryovial was rapidly shaken in a 37 °C water bath to thaw within 1 minute. The thawed cell suspension was mixed with IMDM culture medium containing 10% FBS (HyClone, Catalog #SH30228.01), centrifuged at 1000 rpm for 7 minutes, and the supernatant was discarded. The cell pellet was resuspended in 5 mL of complete culture medium (IMDM medium containing 10% FBS) placed in a cell culture flask with 25 cm^2 of bottom area, and cultured in a cell culture incubator at 37 °C, 95% humidity, and 5% CO2. Cell passaging was performed when the cell density reached approximately 10^6 cells/mL. During cell passaging, the old cell suspension was thoroughly mixed, 1/5 of the cell suspension was retained, and 4 mL of new complete culture medium was added. After thorough mixing, the cells were placed back in the cell culture incubator for further culture. Cell plating was performed when the cell density again reached approximately 10^6 cells/mL. During cell plating, following the cell passage method, 1/5 of the cell suspension was retained for continued culture, and the remaining 4/5 of the cell suspension was placed in a 15 mL centrifuge tube. Cell viability was determined using the trypan blue exclusion method to ensure that cell viability was above 90%. A cell suspension with a density of 1.11 × 10^5 viable cells/mL was prepared using complete culture medium. 90 µL of the cell suspension was added to a 96-well cell culture plate, resulting in a cell density of 10000 viable cells/well. A control group without cells and without compounds, containing only complete culture medium (i.e., culture medium control) and a control group without compounds but containing cells (i.e., cell control) were set up. The cell plate was incubated overnight in the cell culture incubator. First, a 10 mM stock solution of the compound (Example compound and positive control compound 11a-1) in DMSO was serially diluted with DMSO at a 3-fold dilution, down to the 9th concentrations. A 10th concentration containing only DMSO (without the compound) was also prepared as a control. Then, the DMSO solutions containing different concentrations of the compound were diluted 100-fold with complete culture medium, resulting in a DMSO concentration of 1% in each solution. Finally, 10 µL of each solution was added to the corresponding wells of a cell culture plate, resulting in an initial compound concentration of 10 µM, with a 3-fold dilution between adjacent concentrations, and a DMSO concentration of 0.1% in the cell culture plate. The cell plate was then incubated in a cell culture incubator for 72 hours.
as §2, with “signal. A multi-mode microplate reader (PerkinEImer, Envision 2105 Multimode plate Read) was used to full-wavelength scan the luminescence value of each well.” for “signal.”

The IC50 is the concentration that gives 50% inhibition. For the compound `O=C(Nc1ccc(-c2cc3cc(F)c(-c4nnn[nH]4)cc3n2C2CCC2)cc1)C(=O)Nc1ccc(N2CCC(CCO)CC2)cc1` [Example 25], the IC50 with MeWo (Homo sapiens, MeWo, 72 h) was found to be 0.04 µM; in the experiment on MV4-11 it was 0.108 µM.

For the compound `CC1(n2c(-c3ccc(NC(=O)C(=O)Nc4ccc(N5CCC6(CCOC6)CC5)cc4)cc3)cc3cc(F)c(-c4nnn[nH]4)cc32)CCC1` [Example 68], the IC50 in the experiment with MeWo (Homo sapiens, MeWo, 72 h) turned out to be 0.06 µM; in the experiment with MeWo (72 hours), 0.031 µM; in the experiment on MV4-11, 0.06 µM. The “IC50 against Mewo cells, fold lower than 11a-1” value with MeWo (relative to 11a-1 (3.10 µM)) is recorded as 100 fold. Also, the “IC50 against MV4-11 cells, fold lower than 11a-1” value with MV4-11 (relative to 11a-1 (5.13 µM)) is given as 85 fold.

For the compound `O=C(Nc1ccc(-c2cc3cc(F)c(-c4nnn[nH]4)cc3n2C2CCC2)cc1)C(=O)Nc1ccc(N2CCC3(CCOC3)C2)cc1` (stereo not drawn) [Example 61], the IC50 in the experiment on MeWo (Homo sapiens, MeWo, 72 h) worked out at 0.115 µM; with MV4-11 it was 3.03 µM.

As to `CC1(n2c(-c3ccc(NC(=O)C(=O)Nc4ccc(N5CCC6(CCOC6)CC5)cc4)cc3)cc3cc(F)c(-c4nnn[nH]4)cc32)CC1` [Example 70], the IC50 with MeWo (Homo sapiens, MeWo, 72 h) came out at 0.213 µM; in the experiment on MV4-11, 4.25 µM.

Turning to `O=C(Nc1ccc(-c2cc3cc(F)c(-c4nnn[nH]4)cc3n2C2CCC2)cc1)C(=O)Nc1ccc(N2CCC3(CC(O)C3)C2)cc1` (stereo not drawn) [Example 89], the IC50 in the experiment on MeWo (Homo sapiens, MeWo, 72 h) is 0.036 µM; in the experiment on MV4-11 it was 0.095 µM.

Regarding `CC1(n2c(-c3ccc(NC(=O)C(=O)Nc4ccc(N5CCC6(CC5)CC(CO)C6)cc4)cc3)cc3cc(F)c(-c4nnn[nH]4)cc32)CCC1` [Example 97], the IC50 is 0.11 µM in the experiment on MeWo (Homo sapiens, MeWo, 72 h) and 0.305 µM in the experiment on MV4-11.

For the compound `O=C(Nc1ccc(-c2cc3cc(F)c(-c4nnn[nH]4)cc3n2C2CCC2)cc1)C(=O)Nc1ccc(N2CCC3(CC2)CC(CO)C3)cc1` [Example 96], the IC50 was 0.103 µM with MeWo (Homo sapiens, MeWo, 72 h) and over 10 µM in the experiment on MV4-11.

In the case of `CC1(n2c(-c3ccc(NC(=O)C(=O)Nc4ccc(-c5cnn(C6CCOCC6)c5)cc4)cc3)cc3cc(F)c(-c4nnn[nH]4)cc32)CC1` [Example 7], the IC50 with MeWo (Homo sapiens, MeWo, 72 h) was found to be 0.111 µM; in the experiment with MV4-11, 0.254 µM.

Take `O=C(Nc1ccc(-c2cc3cc(F)c(-c4nnn[nH]4)cc3n2C2CCC2)cc1)C(=O)Nc1ccc(N2CCC3(CCOC3)CC2)cc1` [Example 67]: the IC50 in the experiment with MeWo (Homo sapiens, MeWo, 72 h) was 0.038 µM; with MV4-11 it was over 10 µM.

Turning to `O=C(Nc1ccc(-c2cc3cc(F)c(-c4nnn[nH]4)cc3n2C2CCC2)cc1)C(=O)Nc1ccc(N2CCC3(CCC(O)C3)C2)cc1` (stereo not drawn) [Example 92], the IC50 is 0.098 µM in the experiment on MeWo (Homo sapiens, MeWo, 72 h) and 0.123 µM in the experiment with MV4-11.

Regarding `O=C(Nc1ccc(-c2cc3cc(F)c(-c4nnn[nH]4)cc3n2C2CCC2)cc1)C(=O)Nc1ccc(N2CCC(C3COC3)CC2)cc1` [Example 20], the IC50 with MeWo (Homo sapiens, MeWo, 72 h) is 0.042 µM; with MV4-11, over 10 µM.

Consider `O=C(Nc1ccc(-c2cc3cc(F)c(-c4nnn[nH]4)cc3n2C2CCC2)cc1)C(=O)Nc1ccc(N2CCC(CO)C2)cc1` (stereo not drawn) [Example 12], for which the IC50 turned out to be 0.082 µM with MeWo (Homo sapiens, MeWo, 72 h) and 0.262 µM in the experiment on MV4-11.

As for `CC1(O)CC2(CCN(c3ccc(NC(=O)C(=O)Nc4ccc(-c5cc6cc(F)c(-c7nnn[nH]7)cc6n5C5CCC5)cc4)cc3)CC2)C1` [Example 94], the IC50 was determined as 0.041 µM in the experiment on MeWo (Homo sapiens, MeWo, 72 h) and 0.237 µM in the experiment on MV4-11.

Turning to `O=C(Nc1ccc(-c2csc(CO)c2)cc1)C(=O)Nc1ccc(-c2cc3cc(F)c(-c4nnn[nH]4)cc3n2C2CCC2)cc1` [Example 1], the IC50 in the experiment on MeWo (Homo sapiens, MeWo, 72 h) was 0.032 µM; with MV4-11, 0.097 µM.

In the case of `CC1(n2c(-c3ccc(NC(=O)C(=O)Nc4ccc(N5CCC6(CCOCC6)CC5)cc4)cc3)cc3cc(F)c(-c4nnn[nH]4)cc32)CCC1` [Example 77], the IC50 with MeWo (Homo sapiens, MeWo, 72 h) is 0.034 µM; in the experiment with MV4-11 it was 0.094 µM.

`O=C(Nc1ccc(-c2cc3cc(F)c(-c4nnn[nH]4)cc3n2C2CCC2)cc1)C(=O)Nc1ccc(N2CC3(CCOCC3)C2)cc1` [Example 57]: the IC50 in the experiment with MeWo (Homo sapiens, MeWo, 72 h) is 0.096 µM; with MV4-11 it was 0.127 µM.

Consider `O=C(Nc1ccc(-c2cc3cc(F)c(-c4nnn[nH]4)cc3n2C2CCC2)cc1)C(=O)Nc1ccc(N2CC3CC(O)CC3C2)cc1` (stereo not drawn) [Example 116], for which the IC50 is 0.067 µM in the experiment with MeWo (Homo sapiens, MeWo, 72 h) and 0.263 µM in the experiment with MV4-11.

As for `O=C(Nc1ccc(-c2cc3cc(F)c(-c4nnn[nH]4)cc3n2C2CCC2)cc1)C(=O)Nc1ccc(N2CCC3(CCOCC3)CC2)cc1` [Example 76], the IC50 in the experiment with MeWo (Homo sapiens, MeWo, 72 h) worked out at 0.041 µM; in the experiment with MV4-11 it was 0.173 µM.

For the compound `Cn1c(-c2cccc(NC(=O)C(=O)Nc3ccc(-c4ccsc4)cc3)c2)c(I)c2cc(C(=O)O)c(O)cc21` [Example 11a-1, reference compound], the IC50 with MeWo (Homo sapiens, MeWo, 72 h) worked out at 3.1 µM; in the experiment with MV4-11, 5.13 µM.

As to `CC(C)(O)C1CCN(c2ccc(NC(=O)C(=O)Nc3ccc(-c4cc5cc(F)c(-c6nnn[nH]6)cc5n4C4CCC4)cc3)cc2)CC1` [Example 33], the IC50 was 0.117 µM in the experiment with MeWo (Homo sapiens, MeWo, 72 h) and over 10 µM with MV4-11.

As to `O=C(Nc1ccc(-c2cc3cc(F)c(-c4nnn[nH]4)cc3n2C2CCC2)cc1)C(=O)Nc1ccc(N2CCC3(CCC(O)C3)CC2)cc1` (stereo not drawn) [Example 100], the IC50 with MeWo (Homo sapiens, MeWo, 72 h) came out at 0.038 µM; in the experiment with MV4-11, 0.126 µM.

`O=C(Nc1ccc(-c2cc3cc(F)c(-c4nnn[nH]4)cc3n2C2CCC2)cc1)C(=O)Nc1ccc(N2CCC3(CCC(O)CC3)CC2)cc1` [Example 108]: the IC50 came to 0.034 µM in the experiment with MeWo (Homo sapiens, MeWo, 72 h) and 0.115 µM with MV4-11.

As to `O=C(Nc1ccc(-c2cc3cc(F)c(-c4nnn[nH]4)cc3n2C2CCC2)cc1)C(=O)Nc1ccc(N2CC3COCC3C2)cc1` (stereo not drawn) [Example 114], the IC50 with MeWo (Homo sapiens, MeWo, 72 h) amounted to 0.078 µM; with MV4-11 it was 0.156 µM.

Regarding `CC1(n2c(-c3ccc(NC(=O)C(=O)Nc4ccc(-c5cnn(C6COC6)c5)cc4)cc3)cc3cc(F)c(-c4nnn[nH]4)cc32)CC1` [Example 6], the IC50 in the experiment on MeWo (Homo sapiens, MeWo, 72 h) stood at 0.113 µM; in the experiment with MV4-11 it was 0.358 µM.
